Test system: BCR-ABL
Test: effect of the buffer surfactant on BCR-ABL kinase activity in the in vitro kinase radio assay
Type: biochemical
Details: 0.1% in all buffers
Experimental: Off-Chip And On-Chip In Vitro Kinase Radio Assays were performed for comparison. In vitro kinase assays were performed using established protocols for bead-based immunoaffinity capture of a specific kinase followed by kinase reactions in the presence of a kinase-specific peptide substrate and ^32P labeled ATP. The microfluidic on-chip assay was developed using reagents that were compatible and efficient in the context of microfluidic channels and valves. For the microfluidic assay, 0.1% n-dodecyl-beta-D-maltoside (DDM) was added to all buffers to prevent bead clumping (indicated by /DDM in the buffer name). […] For BCR-ABL kinase immunocapture, the off-chip assay used agarose protein NG beads (40-160 μm; Pierce, Rockford, Ill.) and the on-chip assay used smaller and more sturdy Protein G polystyrene beads (6.7 μm; Spherotech Inc., Lake Forest, Calif.). The large average size and fragility of the agarose beads precluded their use on-chip, and the small size of the polystyrene beads made them impractical for the pipeting-based off-chip assay. Both bead types were coated with anti-c-ABL antibody (OP20, EMD Chemicals).

Structure (SMILES): CCCCCCCCCCCCO[C@@H]1O[C@H](CO)[C@@H](O[C@H]2O[C@H](CO)[C@@H](O)[C@H](O)[C@H]2O)[C@H](O)[C@H]1O [DDM, n-dodecyl-beta-D-maltoside]
- effect on BCR-ABL kinase activity: no detectable effect

Reference: US20130244257A1, “INTEGRATED MICROFLUIDIC RADIOASSAY AND IMAGING PLATFORM FOR SMALL SAMPLE ANALYSIS” (THE REGENTS OF THE UNIVERSITY OF CALIFORNIA, priority 2010, published 2013)
